In ChEMBL document CHEMBL1201862, “PubChem BioAssay data set” (2004):
Blank lines part the entries; values can stand above or below the molecule they belong to. Active and inactive are the calls of the source.

Tests used:
[1] = cAMP pathway inhibition in counterscreen cell line – TR-FRET cAMP detection, counter-screen for MC4R biased antagonist project, dose response (AID 602305); assay type: functional, cell-based;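 note: U2OS cells stimulated with forskolin near its EC80 as the cAMP inducer; potency is for inhibition of forskolin-stimulated cAMP signaling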
Melanocortin receptor 4 = Melanocortin receptor 4 (Homo sapiens, UniProt P32245); assay: inhibitors of MC4R cAMP signaling – cell-based, TR-FRET, biased antagonists, dose response (AID 602298); assay type: functional;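 note: antagonist potency against agonist-stimulated cAMP production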
Sequence of Melanocortin receptor 4 (P32245 whole entry): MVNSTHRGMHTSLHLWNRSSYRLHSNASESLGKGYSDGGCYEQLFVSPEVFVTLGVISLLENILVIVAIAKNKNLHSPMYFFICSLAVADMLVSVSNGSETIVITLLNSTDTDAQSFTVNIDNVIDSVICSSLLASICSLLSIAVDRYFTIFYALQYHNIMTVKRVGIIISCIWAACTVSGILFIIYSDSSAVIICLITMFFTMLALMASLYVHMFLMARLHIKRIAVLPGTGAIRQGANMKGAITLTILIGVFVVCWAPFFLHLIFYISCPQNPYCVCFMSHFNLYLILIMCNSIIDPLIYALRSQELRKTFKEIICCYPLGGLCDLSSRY

Caspase-3 = molecular target: T1, Caspase-3 (Homo sapiens, UniProt P42574); assay: inhibition of recombinant caspase-3 activity – biochemical, luminescence, set 2, selectivity assay for SENP protease inhibitor project, SAR follow-up (AID 588599); assay type: functional
T1 sequence (P42574 whole entry): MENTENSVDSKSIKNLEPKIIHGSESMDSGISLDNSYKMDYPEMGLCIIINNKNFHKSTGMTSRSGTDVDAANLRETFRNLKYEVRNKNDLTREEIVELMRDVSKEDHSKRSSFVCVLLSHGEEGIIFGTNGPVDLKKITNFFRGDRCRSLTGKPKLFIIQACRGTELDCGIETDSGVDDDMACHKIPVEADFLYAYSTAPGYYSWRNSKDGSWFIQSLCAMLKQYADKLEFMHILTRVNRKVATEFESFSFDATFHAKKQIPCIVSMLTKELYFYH

[2] = molecular target: T2, Sentrin-specific protease 6 (Homo sapiens, UniProt Q9GZR1); assay: inhibition of human SENP6 catalytic domain – biochemical, luminescence, set 2, SAR follow-up (AID 588598); assay type: functional
T2 sequence (Q9GZR1 whole entry): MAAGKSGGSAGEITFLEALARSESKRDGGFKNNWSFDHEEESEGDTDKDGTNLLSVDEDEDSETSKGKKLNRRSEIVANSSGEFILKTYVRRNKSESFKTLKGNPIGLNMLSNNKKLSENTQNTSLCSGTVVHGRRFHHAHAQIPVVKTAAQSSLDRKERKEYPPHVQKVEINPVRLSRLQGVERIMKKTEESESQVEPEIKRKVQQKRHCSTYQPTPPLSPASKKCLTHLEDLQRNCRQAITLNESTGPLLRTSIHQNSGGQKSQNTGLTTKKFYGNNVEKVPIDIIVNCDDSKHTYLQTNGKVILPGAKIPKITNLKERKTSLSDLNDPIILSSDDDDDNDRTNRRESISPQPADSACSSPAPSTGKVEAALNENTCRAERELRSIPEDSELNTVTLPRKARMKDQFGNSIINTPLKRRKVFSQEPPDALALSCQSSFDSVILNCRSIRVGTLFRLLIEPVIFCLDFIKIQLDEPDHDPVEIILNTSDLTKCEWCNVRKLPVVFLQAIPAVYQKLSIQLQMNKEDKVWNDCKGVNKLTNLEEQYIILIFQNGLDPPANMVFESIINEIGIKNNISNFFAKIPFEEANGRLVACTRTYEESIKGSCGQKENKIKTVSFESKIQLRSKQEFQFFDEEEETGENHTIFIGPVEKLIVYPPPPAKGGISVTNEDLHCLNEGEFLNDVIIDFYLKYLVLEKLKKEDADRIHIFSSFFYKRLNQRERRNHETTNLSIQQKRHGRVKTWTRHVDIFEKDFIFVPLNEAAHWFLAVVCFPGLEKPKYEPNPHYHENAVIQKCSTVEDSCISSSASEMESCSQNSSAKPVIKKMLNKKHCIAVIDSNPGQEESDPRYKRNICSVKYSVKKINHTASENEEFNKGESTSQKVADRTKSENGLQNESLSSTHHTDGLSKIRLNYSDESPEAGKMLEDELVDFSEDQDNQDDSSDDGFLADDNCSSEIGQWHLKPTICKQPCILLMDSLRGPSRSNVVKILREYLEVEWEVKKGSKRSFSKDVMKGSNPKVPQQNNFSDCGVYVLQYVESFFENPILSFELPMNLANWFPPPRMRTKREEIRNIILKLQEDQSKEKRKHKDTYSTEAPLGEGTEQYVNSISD

[3] = molecular target: T3, Sentrin-specific protease 8 (Homo sapiens, UniProt Q96LD8); assay: inhibition of sentrin protease 8 – biochemical, luminescence, set 2, SAR follow-up (AID 588601); assay type: functional
T3 sequence (Q96LD8 whole entry): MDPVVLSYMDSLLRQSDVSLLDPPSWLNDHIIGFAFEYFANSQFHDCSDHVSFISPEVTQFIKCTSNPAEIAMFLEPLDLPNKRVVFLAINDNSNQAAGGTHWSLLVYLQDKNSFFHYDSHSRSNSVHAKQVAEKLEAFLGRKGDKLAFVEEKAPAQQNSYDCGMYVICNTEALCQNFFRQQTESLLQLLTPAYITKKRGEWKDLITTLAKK

[4] = molecular target: T4, Sentrin-specific protease 7 (Homo sapiens, UniProt Q9BQF6); assay: inhibition of human SENP7 cleavage activity – biochemical, luminescence, set 2, SAR follow-up (AID 588600); assay type: functional
T4 sequence (Q9BQF6 whole entry): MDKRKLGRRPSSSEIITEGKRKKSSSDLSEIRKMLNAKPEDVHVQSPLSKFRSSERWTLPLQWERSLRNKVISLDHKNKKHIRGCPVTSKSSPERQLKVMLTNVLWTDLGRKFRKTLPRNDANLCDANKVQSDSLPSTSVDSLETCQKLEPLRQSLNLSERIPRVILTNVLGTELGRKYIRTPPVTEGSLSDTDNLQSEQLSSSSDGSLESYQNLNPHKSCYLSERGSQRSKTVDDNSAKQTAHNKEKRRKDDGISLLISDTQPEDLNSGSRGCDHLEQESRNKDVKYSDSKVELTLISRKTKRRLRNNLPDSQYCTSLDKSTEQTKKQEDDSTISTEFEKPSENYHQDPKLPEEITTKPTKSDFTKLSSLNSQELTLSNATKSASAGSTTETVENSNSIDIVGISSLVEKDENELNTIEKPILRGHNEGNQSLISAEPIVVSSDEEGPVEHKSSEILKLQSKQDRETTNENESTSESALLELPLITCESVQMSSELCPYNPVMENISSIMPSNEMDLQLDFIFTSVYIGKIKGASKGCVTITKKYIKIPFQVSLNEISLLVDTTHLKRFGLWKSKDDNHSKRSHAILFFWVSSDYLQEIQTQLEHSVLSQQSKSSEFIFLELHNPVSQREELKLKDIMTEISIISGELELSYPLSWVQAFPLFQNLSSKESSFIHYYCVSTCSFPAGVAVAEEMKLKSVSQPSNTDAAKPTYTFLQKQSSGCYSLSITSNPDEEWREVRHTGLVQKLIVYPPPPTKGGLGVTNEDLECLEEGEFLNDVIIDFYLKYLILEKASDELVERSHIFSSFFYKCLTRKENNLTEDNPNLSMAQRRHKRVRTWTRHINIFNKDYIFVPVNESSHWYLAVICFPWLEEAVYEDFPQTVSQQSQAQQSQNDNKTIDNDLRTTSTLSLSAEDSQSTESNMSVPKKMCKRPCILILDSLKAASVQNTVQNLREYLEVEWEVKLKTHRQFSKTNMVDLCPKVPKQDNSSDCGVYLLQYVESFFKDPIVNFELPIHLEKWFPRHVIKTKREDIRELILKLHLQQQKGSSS

Jurkat = assay: SAR Analysis of small molecule inhibitors of both B-cell and T-cell specific antigen receptor-induced NF-kB activation in a Jurkat cell line using a luminescence assay. [Related pubchem assays (depositor defined):AID435003, AID435022, AID465, AID489029]; assay type: functional, cell-based; settings: Homo sapiens
HEK293 [5] = assay: HEK293T cell viability loss, resazurin readout – resazurin fluorescence, cytotoxicity control for NF-kB activator project, SAR follow-up (AID 493251); assay type: functional, cell-based; settings: Homo sapiens
HEK293 [6] = assay: SAR Analysis of small molecule inhibitors of both B-cell and T-cell specific antigen receptor-induced NF-kB activation in a HEK-293T cell line using a luminescence assay. [Related pubchem assays (depositor defined):AID435003, AID435022, AID465, AID489019, AID489029]; assay type: functional, cell-based; settings: Homo sapiens
Candida albicans [7] = assay: resistant Candida growth with fluconazole co-treatment – CaCi-8 strain, Alamar Blue, dry powder, set 3, dose response (AID 488905); assay type: functional, organism-based
Candida albicans [8] = assay: Candida growth inhibition combined with fluconazole – CaCi-2 strain, Alamar Blue, dry powder, set 3, dose response (AID 488907); assay type: functional, organism-based

SMILES: CC(=O)Oc1ccc2nc(-c3ccc(Br)o3)oc(=O)c2c1
IC50 [1]: > 64.6 µM (inactive) | IC50 (Melanocortin receptor 4): > 64.6 µM (inactive)

IC50 (Caspase-3): > 99 µM (inactive) | IC50 [2]: > 99 µM (inactive) | IC50 [4]: > 99 µM (inactive)
SMILES: CN(C(=O)c1cccc(Br)c1)c1nc2ccccc2s1
IC50 [3]: > 99 µM (inactive)

SMILES: COc1cc(NS(=O)(=O)c2ccccc2)c2ncccc2c1
IC50 (Jurkat): 1.32 µM (active) | IC50 (HEK293 [5]): 59.5 µM (inactive) | IC50 (HEK293 [6]): 70.7 µM (inactive)

SMILES: Cc1ccc(N2CCN(C(=O)c3ccc(Cl)cc3)CC2)nc1
AC50 (Candida albicans [7]): 25.4 µM (active) | AC50 (Candida albicans [8]): 0.413 µM (active)
